The source of these data is patent publication US7094807B2, “Substituted aryl thioureas and related compounds; inhibitors of viral replication” (Achillion Pharmaceuticals, Inc., priority 2002, dated 2006).

Like-named read-outs stand apart in the source and are kept apart here.

The assay has as its system HCV replicon. In words: HCV replicon assay (NPT ELISA in HCV replicon-containing cells). The conditions noted are these: Hepatitis C virus, 72 h. It is filed as cell-based. The protocol: The compounds claimed herein were tested for the ability to inhibit viral replication of the Hepatitis C replicon in cultured cells in which the HCV replicon construct has been incorporated. The HCV replicon system was described by Bartenschlager, et. al (Science, 285, pp. 110-113 (1999)). The replicon system is predictive of in vivo anti-HCV activity; compounds that are active in humans uniformly evidence activity in the replicon assay.
In this assay HCV replicon containing cells are treated with different concentrations of the test compound to ascertain the ability of the test compound to suppress replication of the HCV replicon. As a positive control, HCV replicon-containing cells are treated with different concentrations of interferon alpha, a known inhibitor of HCV replication. The replicon assay system includes Neomycin Phosphotransferase (NPT) as a component of the replicon itself in order to detect the transcription of replicon gene products in the host cell. Cells in which the HCV replicon is actively replicating have high levels of NPT; the level of NPT is proportional to HCV replication. […] The NPT level of each sample is measured using a captured ELISA.
A protocol for testing compounds for the ability to inhibit viral replication of the Hepatitis C replicon cultured cells in which the replicon construct has been incorporated, follows.
The HCV replicon contains, 5-′3′, the HCV-IRES, the neomycin phosphotransferase (neo) gene, the IRES of encephalomyocarditis virus, which directs translation of HCV sequences NS3 to NS5B, and the 3′-NTR. The sequence of the HCV replicon has been deposited in GenBank (Accession no. AJ242652).
The replicon is transfected into Huh-7 cells using standard methods such as electroporation.
The equipment and materials include, but are not limited to, Huh-7 HCV replicon-containing cells, maintenance media (DMEM (Dulbecco's modified Eagle media) supplemented with 10% FBS, L-glutamine, non-essential amino acids, penicillin (100 units/ml), streptomycin (100 micrograms/ml), and 500 micrograms/ml of Geneticin G418), screening media (DMEM supplemented with 10% FBS, L-glutamine, and non-essential amino acid, penicillin (100 units/ml) and streptomycin (100 micrograms/ml)), 96 well tissue culture plates (flat bottom), 96 well plates (U bottom for drug dilution), Interferon alpha for positive control, fixation reagent (such as methanol: acetone), primary antibody (rabbit anti-NPTII), secondary antibody: Eu-N1 l, and enhancement solution.
HCV replicon-containing cells are rinsed with once PBS once; 2 mls of trypsin is added. Cells are incubated at 37° C. in a 5% CO2 incubator for 3-5 minutes. 10 mls of complete medium is added to stop the reaction. Cells are blown gently, put into a 15 ml tube, and spun at 1200 rpm for four minutes. The trypsin/medium solution is removed and 5 mls of medium (500 ml DMEM (high glucose)) from BRL catalog #12430-054; 50 mls 10% FBS, […] (50 mg/ml, BRL 10131-035), 5 ml MEM non-essential amino acid (100×BRL #11140-050) and 5 ml pen-strep (BRL #15140-148) is added. The cells and media are mixed carefully
Cells are plated with screening medium (500 ml DMEM (BRL #21063-029), 50 ml FBS (BRL #10082-147) and 5 ml MEM non-essential amino acid (BRL #11140-050) at 6000-7500 cells/100 μl/well of 96 well plate (6-7.5×10^5 cells/10 ml/plate). Plates are placed into 37° C. 5% CO2 incubator overnight.
The following morning, drugs (test compounds or interferon alpha) are diluted in 96 well U bottom plates with media or DMSO/media, depending on the final concentration chosen for screening. Generally for 6 concentrations of each test compounds ranging from 10 micromolar to 0.03 micromolar are applied. 100 μl of the test compound dilution is placed in wells of the 96 well plate containing the HCV replicon cells. Media without drug is added to some wells as a negative controls. DMSO is known to affect cell growth. […]

Where [1] appears, read: HCV replicon-containing Huh-7 cells, three days incubation, read-out: EC50 for inhibition of replication of the HCV replicon.
Where [2] appears, read: read-out: EC50 for inhibition of viral RNA replicon replication in Huh9-13 cells.

For `CCCCOC(=O)c1ccc(NC(=S)NC(=O)c2ccc3ccccc3c2)cc1` [Compound 1, 4-[3-(Naphthalene-2-carbonyl)-thioureido]-benzoic Acid Butyl Ester], the concentration giving a half-maximal response (EC50) under setting [1] was below 30 µM.

On to `CCCCOC(=O)c1ccc(NC(=S)N(C)C(=O)COc2ccccc2)cc1` [Compound 2, 4-[3-Methyl-3-(2-Phenoxy-acetyl)-thioureido]benzoic Acid Butyl Ester], for which, under setting [1], the EC50 was below 30 µM.

With `O=C(COc1ccc(C2CC2)cc1)NC(=S)NCc1cccs1` [Compound 3, 1-(2-(4-Cylcopropylphenoxy)acetyl)-3-((thiophen-2-yl)methyl)thiourea], the concentration giving a half-maximal response (EC50) under setting [1] was below 30 µM.

As to `CCCCOC(=O)c1ccc(NC(=S)N(C)C(=O)COc2ccccc2C)cc1` [Compound 4, 4-[3-Methyl-3-(2-o-tolyloxy-acetyl)-thioureido]-benzoic acid butyl ester], the EC50 by setting is: under setting [2], 4.3 µM; under setting [1], below 30 µM.

On to `CCCCOC(=O)c1ccc(NC(=S)N(C)C(=O)COc2cccc(C)c2)cc1` [Compound 5, 4-[3-Methyl-3-(2-m-tolyloxy-acetyl)-thioureido]-benzoic acid butyl ester], for which, under setting [1], the EC50 was below 30 µM.

Regarding `CCCCOC(=O)c1ccc(NC(=S)NC(=O)COc2ccc(C)cc2)cc1` [Compound 6, 4-[3-(2-p-tolyloxy-acetyl)-thioureido]-benzoic acid butyl ester], the EC50 under setting [1] was below 30 µM.

For `CCCCOC(=O)c1ccc(NC(=S)NC(=O)COc2ccc(F)cc2)cc1` [Compound 7, 4-{3-[2-(4-Fluoro-phenoxy)-acetyl]-thioureido}-benzoic acid butyl ester], the EC50 is 3.4 µM under setting [2] and below 30 µM under setting [1].

Take `CCCCOC(=O)c1ccc(NC(=S)NC(=O)COc2ccc(OC)cc2)cc1` [Compound 8, 4-{3-[2-(4-Methoxy-phenoxy)-acetyl]-thioureido}-benzoic acid butyl ester]: under setting [1], the EC50 was below 30 µM.

Turning to `O=C(COc1ccccc1)NC(=S)Nc1ccc(F)cc1` [Compound 9, 1-(4-Fluoro-phenyl)-3-(2-phenoxy-acetyl)-thiourea], the EC50 under setting [1] is below 30 µM.

For the compound `COc1cccc(NC(=S)NC(=O)COc2ccccc2)c1` [Compound 10, 1-(3-Methoxy-phenyl)-3-(2-phenoxy-acetyl)-thiourea], the EC50 under setting [1] is below 30 µM.

With `COc1ccc(NC(=S)NC(=O)COc2ccccc2)cc1` [Compound 11, 1-(4-Methoxy-phenyl)-3-(2-phenoxy-acetyl)-thiourea], the 50% effective concentration (EC50) under setting [1] is below 30 µM.

Turning to `O=C(COc1ccccc1)NC(=S)Nc1ccc(Oc2ccccc2)cc1` [Compound 12, 1-(2-Phenoxyacetyl)-3-(4-phenoxyphenyl)thiourea], the concentration giving a half-maximal response (EC50) under setting [1] is below 30 µM.

Regarding `O=C(COc1ccccc1)NC(=S)Nc1ccc(OCc2ccccc2)cc1` [Compound 13, 1-(4-Benzyloxy-phenyl)-3-(2-phenoxy-acetyl)-thiourea], under setting [1], the 50% effective concentration (EC50) is below 30 µM.

As for `O=C(COc1ccccc1)NC(=S)Nc1ccc(-c2ccccc2)cc1` [Compound 14, 1-Biphenyl-4-yl-3-(2-phenoxy-acetyl)-thiourea], the half-maximal effective concentration (EC50) under setting [1] was below 30 µM.

Take `O=C(COc1ccccc1)NC(=S)Nc1ccc(C2CCCCC2)cc1` [Compound 15, 1-(4-Cyclohexyl-phenyl)-3-(2-phenoxy-acetyl)-thiourea]: the EC50 under setting [1] was below 30 µM.

`O=C(COc1ccccc1)NC(=S)Nc1ccc(N2CCCCC2)cc1` [Compound 16, 1-[(4-piperidine-1-yl)-phenyl]-3-(2-phenoxy-acetyl)-thiourea]: under setting [1], the EC50 was below 30 µM.

In the case of `CCN(CC)c1ccc(NC(=S)NC(=O)COc2ccccc2)cc1` [Compound 17, 1-(4-(Diethylamino)-phenyl)-3-(2-phenoxy-acetyl)-thiourea], under setting [1], the EC50 is below 30 µM.

In the case of `O=C(COc1ccccc1)NC(=S)Nc1cccc(Oc2ccccc2)c1` [Compound 18, 1-(2-phenoxy-acetyl)-3-(3-phenoxy-phenyl)-thiourea], under setting [1], the concentration for a half-maximal effect (EC50) was below 30 µM.

On to `O=C(COc1ccccc1)NC(=S)Nc1cccc(OCc2ccccc2)c1` [Compound 19, 1-(3-Benzyloxy-phenyl)-3-(2-phenoxy-acetyl)-thiourea], for which the concentration for a half-maximal effect (EC50) under setting [1] was below 30 µM.

With `CC(=O)c1ccccc1NC(=S)NC(=O)COc1ccccc1` [Compound 20, 1-(2-Acetyl-phenyl)-3-(2-phenoxy-acetyl)-thiourea], the EC50 under setting [1] was below 30 µM.

With `O=C(COc1ccccc1)NC(=S)Nc1ccc2cc(F)ccc2c1` [Compound 21, 1-(6-Fluoro-naphthalen-2-yl)-3-(2-phenoxy-acetyl)-thiourea], the EC50 under setting [1] is below 30 µM.

`O=C(COc1ccccc1)NC(=S)Nc1ccc2ncsc2c1` [Compound 22, 1-Benzothiazol-6-yl-3-(2-phenoxy-acetyl)-thiourea]: the EC50 under setting [1] was below 30 µM.

On to `O=C(COc1ccccc1)NC(=S)Nc1cnc2ccccc2c1` [Compound 23, 1-(2-Phenoxy-acetyl)-3-quinolin-3-yl-thiourea], for which the concentration giving a half-maximal response (EC50) under setting [1] was below 30 µM.

For the compound `N#Cc1ccc(NC(=S)NC(=O)COc2ccc(Cl)c(Cl)c2)cc1` [Compound 24, 1-(2-(3,4-dichloro-phenoxy)acetyl)-3-(4-cyanophenyl)thiourea], the concentration for a half-maximal effect (EC50) is, setting by setting: under setting [2], 12.1 µM; under setting [1], below 30 µM.

As to `O=C(NC(=S)Nc1cccc(Oc2ccccc2)c1)c1ccccc1O` [Compound 25, 1-(2-Hydroxy-benzoyl)-3-(3-phenoxy-phenyl)-thiourea], the half-maximal effective concentration (EC50) under setting [1] was below 30 µM.

Turning to `O=C(NC(=S)Nc1cccc(Oc2ccccc2)c1)c1cc2ccccc2o1` [Compound 26, 1-(Benzofuran-2-carbonyl)-3-(3-phenoxy-phenyl)-thiourea], the EC50 under setting [1] was below 30 µM.

On to `O=C(NC(=S)Nc1cccc(OCc2ccccc2)c1)c1cc2ccccc2o1` [Compound 27, 1-(Benzofuran-2-carbonyl)-3-(3-benzyloxy-phenyl)-thiourea], for which the EC50 under setting [1] is below 30 µM.

In the case of `O=C(NC(=S)Nc1cccc(OCc2ccccc2)c1)c1cc2ccccc2s1` [Compound 28, 1-(Benzo[b]thiophene-2-carbonyl)-3-(3-benzyloxy-phenyl)-thiourea], under setting [1], the 50% effective concentration (EC50) was below 30 µM.

Regarding `O=C(NC(=S)Nc1cccc(OCc2ccccc2)c1)c1cc2cc(F)ccc2[nH]1` [Compound 29, 1-(3-Benzyloxy-phenyl)-3-(5-fluoro-1H-indole-2-carbonyl)-thiourea], the EC50 under setting [1] was below 30 µM.

Consider `O=C(NC(=S)Nc1ccc(Oc2ccccc2)cc1)c1cc2cc(F)ccc2o1` [Compound 30, 1-(5-Fluoro-benzofuran-2-carbonyl)-3-(4-phenoxy-phenyl)-thiourea], for which the EC50 under setting [1] is below 30 µM.

With `Fc1ccc2oc(C(=S)NC(=S)Nc3ccc(Oc4ccccc4)cc3)cc2c1` [Compound 31, 1-(5-Fluoro-benzofuran-2-carbothioyl)-3-(4-phenoxy-phenyl)-thiourea], the EC50 under setting [1] was below 30 µM.

With `O=C(CCc1ccc(F)cc1)NC(=S)Nc1ccc(Oc2ccccc2)cc1` [Compound 32, 1-[3-(4-Fluoro-phenyl)-proprionyl]-3-(4-phenoxy-phenyl)-thiourea], under setting [1], the EC50 is below 30 µM.

Take `O=C(COc1ccccc1)NC(=S)NC1CCC(Oc2ccccc2)CC1` (centres unmarked) [Compound 33, 1-(2-Phenoxy-acetyl)-3-(4-phenoxy-cyclohexyl)-thiourea]: the EC50 under setting [1] is below 30 µM.

With `O=C(COc1ccccc1)NC(=S)NCCc1ccccc1` [Compound 34, 1-Phenethyl-3-(2-phenoxy-acetyl)-thiourea], the concentration for a half-maximal effect (EC50) under setting [1] is below 30 µM.

As to `CN(CCc1ccccc1)C(=S)NC(=O)COc1ccccc1` [Compound 35, 1-Methyl-1-phenethyl-3-(2-phenoxy-acetyl)-thiourea], the EC50 under setting [1] was below 30 µM.
